The subject of assay [1] is S. pneumoniae. The experiment in a line: In vitro antibacterial activity. Format: cell-based. The settings on record: one strain of S. pneumoniae. The procedure: (§1) Win 52,522 and Win 35,439 were solubilized in 0.1 ml of 0.5 N NaOH/mg of compound and diluted in sterile distilled water to 160 mcg/ml. Vancomycin and methicillin were solubilized in sterile distilled water to 1250 mcg/ml of base compound. The stock solutions were sterilized by filtration through membrane filters with a 0.45 μm pore size.
(§2) The bacterial cultures listed in Table I (hereinbelow) were grown overnight at 37° C. in MHB for all cultures except the Streptococcus strains. These were grown in BHI+10% NHS. The overnight broth cultures were adjusted to an optical density of 0.10 (650 nm, B L Spectronic 20) in sterile distilled water and subsequently diluted to 6.7×10^6 cells/ml in MHB or BHI+1% NHS.
(§3) Serial two-fold dilutions of the compound solutions were prepared in MHB (or in BHI+1% NHS for tests with Streptococci) and dispensed into 96-well microtiter trays in a volume of 0.1 ml/well using a Sandy Springs (Bellco Glass Co.) dispenser. The trays were then inoculated with 0.0015 ml of a suspension containing 6.7×10^6 cells/ml of the appropriate inoculum using a MIC-2000 inoculator (Dynatech Corp.) resulting in a final inoculum of approximately 1×10^4 cells/well or 1×10^5 cells/ml. The trays were incubated at 37° C. for 18-20 hours and the minimal inhibitory concentration (MIC), defined as the lowest concentration of compound to inhibit visible bacterial growth, was recorded.
(§4) After the MIC values were recorded, the contents in the microtiter trays were thoroughly mixed on a Bellco Mini-orbital Shaker (Bellco Glass Co.) for 3 min. at a setting of 8. A portion (0.0015 ml) from each well was then transferred via an MIC-2000 inoculator to plates containing MHA or BHI agar+10% NHS. The plates were incubated at 37° C. for 18-20 hrs. The minimal bactericidal concentration (MBC), defined as the lowest concentration of compound that prevented the formation of a recognizable colony on the agar surface, was recorded.

Assay [2] concerns E. coli 2350. As to the kind of experiment: In vitro antibacterial MIC/MBC test. The class given is cell-based. The settings on record: Escherichia coli. The essentials:
(§5)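 In this microdilution assay, strains are exposed to two-fold compound dilutions in MHB (streptococci in BHI+1% NHS) at roughly 1×10^4 cells per well for 18-20 hours at 37° C. Visible growth defines the MIC. Subculture onto MHA or BHI agar+10% NHS defines the MBC.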

In assay [3] the test system is E. coli AH719. The experiment in a line: In vitro antibacterial MIC/MBC test. The class given is cell-based. The settings on record: Escherichia coli. In a few lines:
as §5

The test system of assay [4] is E. coli Vogel. The experiment in a line: In vitro antibacterial MIC/MBC test. Format: cell-based. The settings on record: Escherichia coli. The essentials: as §5
For assay [5], the system named is P. aeruginosa (27853). As to the kind of experiment: In vitro antibacterial MIC/MBC test. Format: cell-based. The settings on record: Pseudomonas aeruginosa, ATCC27853; P. aeruginosa ATCC No. 27853. The essentials: as §5
Assay [6] has as its system P. aeruginosa (7700). As to the kind of experiment: In vitro antibacterial MIC/MBC test. Format: cell-based. The settings on record: Pseudomonas aeruginosa, ATCC7700; P. aeruginosa ATCC No. 7700. The essentials:
as §5

The subject of assay [7] is E. coli. As to the kind of experiment: In vitro MIC/MBC summary (Table II). Particulars: Escherichia coli, 5 E. coli strains. The class given is cell-based. The procedure: as §1, §2, §3, §4
Assay [8] has as its system Escherichia coli Vogel. The experiment in a line: Mouse protection test, E. coli Vogel infection. Particulars: for ED50: Escherichia coli, 168 h, once one-half hour postinfection, read-out: Protective Dose 50% (95% Confidence Limits); for times more efficacious than Win 35,439: E. coli infection. Format: in vivo, ICR mice; Escherichia coli. The procedure:
ICR mice, female, 18-20 grams each.
Solutions of Win 52,522 and Win 35,439 were prepared by dissolving the appropriate weight of drug in 0.3 to 0.4 ml of 1 N NaOH and then bringing the solutions to the desired volume with distilled water. Methicillin and vancomycin were dissolved directly in distilled water.
The culture was inoculated into 10 ml of Brain Heart Infusion broth and grown statically for 16 hours at 37° C. Fresh tubes of the same broth were inoculated with 0.1 ml portions of the 16 hour broth culture and incubation continued for 5 hours at 37° C. The 5 hour broth culture was finally diluted with saline to provide the test inoculum containing 4.0×10^7 cells/ml.
Mice were inoculated intraperitoneally with 0.5 ml of the bacterial test inoculum.
Mice were medicated subcutaneously or orally once (0.5 ml) one-half hour postinfection.
Deaths were recorded daily for seven days for all tests. Fifty percent protective dose values (PD50's) were calculated using probit analysis [SAS Users Guide: Statistics, 1982 Edition, SAS Institute, Inc., Cary, N.C.].

The test system of assay [9] is all 39 bacterial test strains. The experiment in a line: In vitro antibacterial activity. Format: cell-based. The procedure: as §1, §2, §3, §4
For assay [10], the system named is all thirteen of the target anaerobic microorganisms. The experiment in a line: Antimicrobial activity against anaerobic microorganisms. Format: cell-based. The procedure:
1. Maintenance. Prior to use, all strains were maintained in the lyophilized state. During the study, cultures were examined on blood agar basal medium supplemented with 5.0% (v/v) defibrinated rabbit blood. Culture transfer was accomplished weekly with all cultures being incubated in an anaerobic atmosphere (GasPak jar; BBL).
2. Agar Medium. The basal test medium consisted of trypticase soy agar (40 g), yeast extract (1 g), glucose (2 g) and 960 ml of distilled water pH 7.2. [Mashimo et al., J. Clin. Micro. 17, 187-191 (1983)]. Subsequent to sterilization and cooling to 50° C., the medium was supplemented with 4% (v/v) defibrinated rabbit blood and 0.5 μg/ml menadione (Vitamin K3) The agent under evaluation was also added at this time to the concentration desired. Subsequent to pouring of the plates, they were permitted to dry at 4° C. for 24 hr.
3. Determination of Agent MIC. The minimal inhibitory concentration (MIC) of the various test agents was determined using an agar dilution technique. Agents and appropriate reference compounds were added to achieve a series of concentrations ranging between 32 μg/ml and 0.007 μg/ml. The inocula were prepared from 96-hr. cultures grown on the maintenance medium. Subsequent to a purity evaluation, colonies were removed and suspended in trypticase soy broth supplemented with 5 μg/ml menadione and 2% lysed rabbit blood filtrate to achieve an OD650 of 0.1 (this corresponded to approximately 10^8 cells/ml). Cultures were inoculated aerobically on the modified trypticase soy blood agar plates by use of a Steer's replicator (which delivers about 10^5 cells per spot). The plates were allowed to dry for a time not exceeding 30 min. and then incubated at 37° C. under an atmosphere of […], 10% H2 and 5% CO2 maintained in an anaerobic chamber (Coy Manufacturing Co.) for 48 hr. The MIC was defined as the lowest concentration completely inhibiting growth.
Tetracycline stock solutions (1 mg/ml) were made subsequent to dissolution in water. Stock solutions (1 mg/ml) of the remaining test compounds were made subsequent to dissolution in 1/10 N NaOH.

Broadly, the MBC is the lowest tested concentration that kills the bacteria rather than only halting them. Usually MIC stands for the lowest concentration found to suppress growth. One may read the MIC50 as an inhibitory concentration at the 50% level, which refers to growth in some studies and to a panel of isolates in others. Low values mean higher susceptibility, high ones lower susceptibility. As a reminder, the MIC90 is an inhibitory concentration at the 90% level, which refers to growth in some studies and to a panel of isolates in others. A higher MIC90 goes with weaker potency.

Values after ≈ are worked out from the molar mass of the structure shown. “Also recorded” adds a separate entry of the source. Read-outs that look alike come from different tables or passages of the source.

Take `CN[C@H](CC(C)C)C(=O)N[C@H]1C(=O)N[C@@H](CC(N)=O)C(=O)N[C@H]2C(=O)N[C@H]3C(=O)N[C@H](C(=O)N[C@H](C(=O)O)c4cc(O)cc(O)c4-c4cc3ccc4O)[C@H](O)c3ccc(c(Cl)c3)Oc3cc2cc(c3O[C@@H]2O[C@H](CO)[C@@H](O)[C@H](O)[C@H]2O[C@H]2C[C@](C)(N)[C@H](O)[C@H](C)O2)Oc2ccc(cc2Cl)[C@H]1O` [Vancomycin]: the bactericidal / bacteriostatic entry in [1] is on record as “bacteriostatic”.

On to `CCn1cc(C(=O)O)c(=O)c2ccc(-c3cc(C)nc(C)c3)cc21` [Win 35,439, 1-ethyl-1,4-dihydro-7-(2,6-dimethyl-4-pyridinyl)-4-oxo-3-quinolinecarboxylic acid], for which the MBC in assay [2] was 0.5 mg/L (≈ 1.55 µM); in assay [3], 0.5 mg/L (≈ 1.55 µM); in [4], 2 mg/L (≈ 6.2 µM); in [5] it was more than 16 mg/L; in [6] it was more than 16 mg/L; in assay [7] (read-out: MBC 50%) it was 0.5 mg/L (≈ 1.55 µM). For the same compound, the MBC in assay [7] (read-out: MBC Range) fell in the range of 0.5 to 2 mg/L (≈ 1.55 to 6.2 µM). Besides, the MIC in [2] is 0.5 mg/L (≈ 1.55 µM); in assay [3], 0.5 mg/L (≈ 1.55 µM); in assay [4], 2 mg/L (≈ 6.2 µM); in assay [5] it was 16 mg/L (≈ 49.6 µM); in assay [6], 16 mg/L (≈ 49.6 µM); in assay [7], 0.5 to 2 mg/L (≈ 1.55 to 6.2 µM). This compound yielded an MIC50 in assay [7] of 0.5 mg/L (≈ 1.55 µM). Moreover, in assay [7], the MIC90 came out at 2 mg/L (≈ 6.2 µM). The Survivors/Total in assay [8] (3.13 mg/kg po) is on record as 0/10; in assay [8] (3.13 mg/kg sc), 1/10; in [8] (6.25 mg/kg po), 0/10; in assay [8] (6.25 mg/kg sc), 0/10; in assay [8] (12.5 mg/kg po), 2/10; in assay [8] (12.5 mg/kg sc), 4/10. The Survivors/Total in [8] (25 mg/kg po) was 9/10; in [8] (25 mg/kg sc) it was 10/10. Moreover, the ED50 in assay [8] (po, po) is 16.5 mg/kg; in [8] (sc, sc), 13.5 mg/kg.

As for `CCn1cc(C(=O)O)c(=O)c2cc(F)c(-c3cc(C)nc(C)c3)cc21` [Win 52,522, 1-ethyl-6-fluoro-1,4-dihydro-7-(2,6-dimethyl-4-pyridinyl)-4-oxo-3-quinolinecarboxylic acid], the MBC in [2] is 0.25 mg/L (≈ 0.735 µM); in assay [3], 0.25 mg/L (≈ 0.735 µM); in assay [4], 0.5 mg/L (≈ 1.47 µM); in assay [5] it was 16 mg/L (≈ 47 µM); in assay [6], 16 mg/L (≈ 47 µM); in assay [7] (read-out: MBC 50%), 0.25 mg/L (≈ 0.735 µM). The MBC in assay [7] (read-out: MBC Range) was 0.25 to 0.5 mg/L (≈ 0.735 to 1.47 µM). The MIC in assay [2] was 0.25 mg/L (≈ 0.735 µM); in assay [3] it was 0.25 mg/L (≈ 0.735 µM); in assay [4], 0.25 mg/L (≈ 0.735 µM); in [5], 16 mg/L (≈ 47 µM); in assay [6] it was 16 mg/L (≈ 47 µM); in [7], 0.25 to 0.5 mg/L (≈ 0.735 to 1.47 µM). For the same compound, the MIC50 in assay [7] came out at 0.25 mg/L (≈ 0.735 µM). The MIC90 in assay [7] was found to be 0.25 mg/L (≈ 0.735 µM). In addition, in assay [9] (all Gram-positive and Gram-negative test strains), the MBC/MIC is on record as not above 4. The bactericidal / bacteriostatic entry in [9] (all test strains) is “bactericidal”. Besides, the “antimicrobial activity (in words)” value in assay [10] was “high activity against all thirteen of the target anaerobic microorganisms; also recorded: extremely active against a number of anaerobic microorganisms; also recorded: markedly superior to both Win 35,213 and 35,439; also recorded: broad spectrum of antimicrobial activity, comparing favorably with the currant antibiotic of choice, tetracycline”. In addition, the Survivors/Total in [8] (1.56 mg/kg po) is 0/10; in assay [8] (1.56 mg/kg sc), 0/10; in assay [8] (3.13 mg/kg po) it was 0/10; in assay [8] (3.13 mg/kg sc), 0/10; in assay [8] (6.25 mg/kg po), 2/10; in assay [8] (6.25 mg/kg sc), 8/10. For the same compound, the Survivors/Total in assay [8] (12.5 mg/kg po) is listed as 9/10; in assay [8] (12.5 mg/kg sc), 10/10; in assay [8] (25 mg/kg po) it was 10/10; in assay [8] (25 mg/kg sc) it was 10/10. Moreover, the ED50 in [8] (po, po) was 8.2 mg/kg; in [8] (sc, sc), approximately 5.2 mg/kg. Moreover, the “times more efficacious than Win 35,439” value in assay [8] (p.o.) was 2.0 times; in assay [8] (s.c.), 2.6 times. For the same compound, the “PD50 values relative to those of Win 35,439” value in assay [8] (subcutaneous and oral) is recorded as “approximately one-half”.

Values taken from US4698350A, “1-ethyl-6-fluoro-1,4-dihydro- 7-(2,6-dimethyl-4-pyridinyl)-4-oxo-3-quinolinecarboxylic acid and antibacterial use thereof” (Sterling Drug Inc., priority 1984, dated 1987).
